What was measured:
[FXa-Hep-ATIII] complex = Blood coagulation factor in vitro enzymatic assay (FXa/ATIII/Hep, chromogenic peptide hydrolysis); type: biochemical, human; settings: for in vitro potency as Hep antidote (recovery of FXa activity), rank order: 1 μM of each binder, Hep 0.1 IU/mL, FIG. 2B; for activity as Hep antidote in the enzymatic assay compared with ciraparantag: percent hydrolysis at 30 min, FIG. 2C
Description: Blood coagulation factor in vitro enzymatic assays: Recombinant antithrombin Ill and coagulation Factor Xa were obtained from the Berichrom Heparin test, supplied by SIEMENS. Following the indications of the test kit, stock solutions were prepared as follows: Human antithrombin III (1 IU/mL), Factor Xa reagent (0.4 μg/mL, human plasma fraction with the additives Tris, sodium chloride and EDTA) and a chromogenic substrate specific for factor Xa (4 mM of Z-D-Leu-Gly-ArgANBA-methyl amide). On the other hand, 4-nitroaniline (Sigma Aldrich) was added to the substrate solution at a concentration of 1.6 mM and was used as internal standard to quantify the hydrolysis of the chromogenic substrate. Heparin (sodium salt from porcine intestinal mucosa, polydisperse, from 6000 to 30000 Daltons) was purchased from Sigma-Aldrich. All compounds were dissolved in mili-Q water at the desired stock concentrations prior to start the assays and kept at 4° C. Various concentrations of the ligand, heparin (0.1 IU/mL), human antithrombin Ill solution (3.5 μL) and Factor Xa reagent solution (35 μL) were added in order to an Eppendorf and brought to a total volume of 145 μL. Then, 20 μL of Reagent Substrate solution was added to start the experiment and the mixture was vigorously shaken at 25° C. 20 μL samples were taken at minutes 5/10/15/20/30/50/80/120, diluted with 40 μL of acetic acid (20% v/v), and injected in the analytical HPLC. The gradient ranged from 5% ACN (0.1% formic acid) in water (0.1% formic acid) to 100% ACN in 24 minutes using a 15×4.6 mm KROMAPHASE C18 5.0 μm column (retention time of cleaved chromophore 9.1 min, retention time of chromogenic substrate 13.9 min, retention time of 4-nitroaniline 15.4 min). Concentrations of reagents have been adjusted compared with previous studies with the intention to slow down the total exhaustion of peptide substrate. In this way the activity can be more carefully modulated and any change is easier to detect. FXa/ATIII activity was represented as percent of hydrolysis, which was calculated from the normalized area of cleaved peptide at 405 nm at each corresponding time point. Experiment carried out in absence of heparin was considered as maximum of activity while experiment with heparin and no ligand was considered as negative control (maximum inhibition of FXa by heparin). Concentration of heparin was selected for the measurement to render a significant inhibition within experimental time, while allowing the reaction to proceed.
In vitro inhibition of heparin activity. The effect of the binders as Hep antidotes can be tested in vitro using an enzymatic reaction related to the blood coagulation process (FIG. 2A). This test employs human recombinant coagulation factor Xa (FXa) and antithrombin III (ATIII), with the synthetic peptide Z-D-LGR-N(Me)ANBA as the substrate of the FXa protease to mimic the prothrombin to thrombin transformation that triggers blood coagulation. Heparin forms a ternary complex with ATIII and FXa with a low hydrolytic activity, as a model for the anticoagulation effect of Hep. The addition of an efficient Hep binder dissociates the [FXa-Hep-ATIII] complex, thus releasing the active form of FXa that cleaves the substrate. The peptide hydrolysis can be readily monitored by analytical HPLC thanks to the ANBA chromophore, as an accurate measurement of the reaction kinetics.
In parallel experiments, the addition of equal concentration (1 μM) of each of the binders produces a different level of recovery of the FXa activity. […] Actually, several selected molecules derived from spermine were tested in the enzymatic assay (FIG. 2C) most of them showing activity in the reversal of the heparin action.

[1] = tested on: freshly extracted mouse blood with Hep; assay: Ex vivo blood coagulation assay; settings: for reversal of anticoagulant effect of Hep in mouse blood (clot formation): Hep 130 μM, various ligand concentrations, 15 minutes, FIG. 3A
Description: Ex vivo blood coagulation assays: Freshly collected mouse blood was collected and directly used without further treatment. 300 μL aliquots were prepared. To them, Hep (130 μM), and various concentration of ligand (3AC or 3FF) were added. The samples of the different conditions were added to an Eppendorf tube and a picture was taken after 15 minutes. The clot formation was confirmed by turning around the Eppendorf vials.
Reversing the anticoagulant activity of heparin: In order to check the efficacy of the antidotes in a more representative environment, 3FF and 3AC were tested in real blood coagulation assays. Thus, it has been monitored the coagulation of freshly extracted mouse blood in the absence or presence of Hep, and upon addition of different concentrations of 3FF and 3AC.

heparinized mice = assay: In vivo tail transection assay with mice; set-up: species or system mouse; settings: for reversal of Hep activity in vivo (bleeding of heparinized mice): Hep 100 IU/kg i.v. followed by 2.2 or 4.4 mg/kg, blood collected 10 minutes, FIG. 3B; for blood loss of heparinized mice at the highest doses: Hep 100 IU/kg, highest dose (4.4 mg/kg)
Description: In vivo tail transection assays with mice: Eight-weeks old CD-1 male mice (Janvier-Labs) were used for the study. Animals were housed under a 12 h light: dark cycle in an environmentally controlled room and free access to water and food. Mice were randomly assigned into 6 groups (n=6 for each group). Animals were anesthetized by i.p. injections of 0.465 mg/kg xylazine (Rompun, Bayer DVM) and 1.395 mg/kg ketamine (Imalgene 100, Merial Laboratorios). After anesthetizing them, different solutions were injected intravenously according to the assigned group: Saline group (only saline was given), Hep group (Hep injection, 100 IU/kg), 3AC (two groups, Hep injection followed by injection of 3AC at 2.2 mg/kg or 4.4 mg/kg) and 3FF (two groups, Hep injection followed by injection of 3FF at 2.2 mg/kg or 4.4 mg/kg). Two additional control groups (n=3) were included in which only the ligand (3AC or 3FF) at the highest dose (4.4 mg/kg) was injected. At 5 minutes after injections, tails were transected at 5 mm from the tip and immediately inserted in a tube containing 1 ml of saline buffer immersed in a water bath at 37° C., where the blood draining out of the wound was collected for 10 minutes. The blood draining out from the wound was collected in each tube. Tails were let bleed during 10 minutes. The total blood volume in each tube was quantified by spectrophotometry (absorbance at 414 nm) from a standard curve that was constructed with known volumes of blood hemoglobin concentration and corresponding absorbance value. Statistical analysis of the data was done with Kaleida Graph 4.5.4 using ANOVA.
3FF and 3AC were tested in an in vivo coagulation model. It was thus performed the tail transection assay with mice after consecutive injection of Hep, and the drugs at two different doses each (FIG. 3B). The control groups injecting saline or Hep, and those corresponding to just the drugs were also included.

[2] = Surface Plasmon Resonance (SPR) on heparin-functionalized chips; type: binding
Description: Surface Plasmon Resonance (SPR): Affinity experiments between inhibitors and heparin were performed on an Open SPR™(Nicoya). All measurements were performed at 25° C. using a working buffer of 25 mM Tris at pH 7.5. Biotin-loaded sensor chips (NICOYA) were further functionalized with streptavidine (50 μg/mL) and later with biotin-heparin (50 μg/mL). Binding experiments to heparin were performed by injecting inhibitors at desired concentrations and at a rate of 40 μL/min. Between binding assays, the surface was regenerated by exposure to an injection of 10 mM HCl. Fitting has been performed by Trace Drawer software using a ‘one-to-one two-state algorithm’, which considers a 1:1 binding with a further equilibrium like a conformational change. Results obtained from three independent experiments at three different concentrations of the ligands were fit globally to render the corresponding on/off rate constants and the apparent dissociation constants (KD^app Table 1, as shown below).
Binding of the spermine derivatives to the heparin target. Surface Plasmon Resonance (SPR) on heparin-functionalized chips were used to determine the apparent dissociation constant of selected molecules (KD^app, Table 1).

For `Oc1ccccc1CNCCCNCCCCNCCCNCc1ccc2ccccc2c1O` [Compound 3AG, 2-(16-(2-hydroxyphenyl)-2,6,11,15-tetraazahexadecyl)naphthalen-1-ol], the “in vitro potency as Hep antidote (recovery of FXa activity), rank order” value (“in vitro potency as Hep antidote” for short) ([FXa-Hep-ATIII] complex) was 3AG (rhombuses)<3AF.

In the case of `Oc1ccccc1CNCCCNCCCCNCCCNCc1cccc2ccccc12` [Compound 3AL, 2-(16-(naphthalen-1-yl)-2,6,11,15-tetraazahexadecyl)phenol, reference compound], the “in vitro potency as Hep antidote” value ([FXa-Hep-ATIII] complex) is reported as 3AL (X symbols)≤3AG.

In the case of `Oc1ccc2ccccc2c1CNCCCNCCCCNCCCNCc1c(O)ccc2ccccc12` [Compound 3FF, 1,1′-(2,6,11,15-tetraazahexadecane-1,16-diyl)bis(naphthalen-2-ol)], the “reversal of anticoagulant effect of Hep in mouse blood (clot formation)” value [1] is reported as “able to revert the anticoagulant effect of Hep in a dose-response manner”, the “reversal of Hep activity in vivo (bleeding of heparinized mice)” value (heparinized mice) is reported as “efficient antidotes of Hep also in vivo, strongly reducing the bleeding of heparinized mice” and the “blood loss of heparinized mice at the highest doses” value (heparinized mice) is reported as “reversed to values very similar to those of the control group injected with saline”. For the same molecule, the “affinity to Hep compared with ciraparantag” value [2] was “higher affinity to Hep than ciraparantag”, the “in vitro potency as Hep antidote” value ([FXa-Hep-ATIII] complex) was 3FF (inverted solid triangles)<3AC and the “activity as Hep antidote in the enzymatic assay compared with ciraparantag” value ([FXa-Hep-ATIII] complex) was “comparable with the drug ciraparantag”.

In the case of `Oc1ccccc1CNCCCNCCCCNCCCNCc1c(O)ccc2ccccc12` [Compound 3AF, 1-(16-(2-hydroxyphenyl)-2,6,11,15-tetraazahexadecyl)naphthalen-2-ol], the “in vitro potency as Hep antidote” value ([FXa-Hep-ATIII] complex) is reported as 3AF (open circles)<3FF.

For `Oc1ccccc1CNCCCNCCCCNCCCNCc1ccc2c(c1)Cc1ccccc1-2` [Compound 3AC, 2-(16-(9H-fluoren-2-yl)-2,6,11,15-tetraazahexadecyl)phenol], the “reversal of anticoagulant effect of Hep in mouse blood (clot formation)” value [1] was “able to revert the anticoagulant effect of Hep in a dose-response manner”, the “ex vivo antidote quality, 3AC compared with 3FF” value ([1]; equal doses, qualitative) was “better antidote than 3FF” and the “reversal of Hep activity in vivo (bleeding of heparinized mice)” value (heparinized mice) was “efficient antidotes of Hep also in vivo, strongly reducing the bleeding of heparinized mice”. For the same molecule, the “blood loss of heparinized mice at the highest doses” value (heparinized mice) was “reversed to values very similar to those of the control group injected with saline”, the “in vivo reversal potency, 3AC compared with 3FF” value (heparinized mice; tail transection, mice) was “more potent reversal agent than 3FF” and the “affinity to Hep compared with ciraparantag” value [2] was “higher affinity to Hep than ciraparantag”. The “in vitro potency as Hep antidote” value ([FXa-Hep-ATIII] complex) was under 3AC and the “activity as Hep antidote in the enzymatic assay compared with ciraparantag” value ([FXa-Hep-ATIII] complex) was “even more potent”.

From US20240409496A1, “SPERMINE DERIVATIVES AS HEPARIN ANTIDOTES” (CONSEJO SUPERIOR DE INVESTIGACIONES CIENTÍFICAS (CSIC), priority 2021, published 2024)
